The results in this text go back to ChEMBL document CHEMBL5113426, “Design, synthesis and antitumor activity study of PARP-1/HDAC dual targeting inhibitors” (Bioorg Med Chem Lett, 2022).

The source made the active and inactive calls. The rule behind the calls is not given here. Bounds are passed on as bounds.

The target of data set [1] is Poly [ADP-ribose] polymerase 1 (Homo sapiens, UniProt P09874). In words: Inhibition of PARP-1 derived from human HeLa cell nucleus. It counts as subcellular.
In another data set the target is Histone deacetylase. In words: Inhibition of HDAC derived from human HeLa cell nucleus. The class given is subcellular.
Data set [2] concerns MDA-MB-231. In words: Antiproliferative activity against human MDA-MB-231 cells assessed as reduction in cell viability measured after 7 days. The class given is functional, cell-based. Conditions: MDA-MB-231, 168 h.
Data set [3] relates to ES-2. In words: Antiproliferative activity against human ES2 cells assessed as reduction in cell viability measured after 7 days. It counts as functional, cell-based. Conditions: ES-2, 168 h.
In a further data set the test system is DU-145. In words: Antiproliferative activity against human DU-145 cells assessed as reduction in cell viability. The class given is functional, cell-based.
A further data set has as its system A549. As to the kind of experiment: Antiproliferative activity against human A549 cells assessed as reduction in cell viability. It counts as functional, cell-based.
Another data set has as its system HCC1937. As to the kind of experiment: Antiproliferative activity against human HCC1937 cells assessed as reduction in cell viability. It counts as functional, cell-based.
Another data set relates to CAPAN-1. As to the kind of experiment: Antiproliferative activity against human CAPAN-1 cells assessed as reduction in cell viability. It counts as functional, cell-based.
Another data set addresses Histone deacetylase 2 (Homo sapiens, UniProt Q92769). As to the kind of experiment: Inhibition of HDAC2 (unknown origin).
The target in another data set is Histone deacetylase 3 (Homo sapiens, UniProt O15379). In words: Inhibition of HDAC3 (unknown origin).
The next data set deals with Histone deacetylase 4 (Homo sapiens, UniProt P56524). In words: Inhibition of HDAC4 (unknown origin).
Data set [4] concerns the target T1, Protein deacetylase HDAC6 (Homo sapiens, UniProt Q9UBN7).
T1 sequence (Q9UBN7 whole entry): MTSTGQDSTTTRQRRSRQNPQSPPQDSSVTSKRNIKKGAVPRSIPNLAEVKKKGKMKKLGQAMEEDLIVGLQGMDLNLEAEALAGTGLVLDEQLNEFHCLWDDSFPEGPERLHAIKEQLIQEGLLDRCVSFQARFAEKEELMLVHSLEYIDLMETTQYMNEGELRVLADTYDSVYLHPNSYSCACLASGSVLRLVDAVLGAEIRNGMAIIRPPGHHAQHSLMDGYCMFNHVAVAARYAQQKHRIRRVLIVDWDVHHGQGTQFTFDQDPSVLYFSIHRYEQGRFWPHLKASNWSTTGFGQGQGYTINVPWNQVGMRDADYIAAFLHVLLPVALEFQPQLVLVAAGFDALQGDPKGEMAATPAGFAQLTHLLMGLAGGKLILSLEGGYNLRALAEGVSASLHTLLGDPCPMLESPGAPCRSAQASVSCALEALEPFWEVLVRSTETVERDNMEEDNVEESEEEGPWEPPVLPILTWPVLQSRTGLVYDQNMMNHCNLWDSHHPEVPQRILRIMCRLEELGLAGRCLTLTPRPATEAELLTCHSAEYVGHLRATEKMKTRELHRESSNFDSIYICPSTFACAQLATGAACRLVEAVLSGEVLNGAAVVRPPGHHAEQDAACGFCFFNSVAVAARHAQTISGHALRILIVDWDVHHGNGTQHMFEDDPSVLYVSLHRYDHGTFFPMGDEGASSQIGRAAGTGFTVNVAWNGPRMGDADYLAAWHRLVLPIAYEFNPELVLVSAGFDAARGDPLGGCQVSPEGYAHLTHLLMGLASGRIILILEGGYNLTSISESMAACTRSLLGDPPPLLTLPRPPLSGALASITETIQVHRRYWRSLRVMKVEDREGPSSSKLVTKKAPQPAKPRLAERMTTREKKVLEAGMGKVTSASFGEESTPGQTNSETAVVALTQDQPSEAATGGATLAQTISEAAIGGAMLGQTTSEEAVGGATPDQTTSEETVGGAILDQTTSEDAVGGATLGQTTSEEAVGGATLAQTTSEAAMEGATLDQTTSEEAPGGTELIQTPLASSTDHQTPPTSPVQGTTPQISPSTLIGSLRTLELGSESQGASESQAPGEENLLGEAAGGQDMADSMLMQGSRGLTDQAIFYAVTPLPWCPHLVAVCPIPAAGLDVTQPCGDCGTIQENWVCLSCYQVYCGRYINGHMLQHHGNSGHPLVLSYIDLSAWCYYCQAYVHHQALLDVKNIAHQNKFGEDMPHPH
As to the kind of experiment: Inhibition of HDAC6 (unknown origin).

In the next data set the target is T2, Histone deacetylase 8 (Homo sapiens, UniProt Q9BY41).
T2 sequence (Q9BY41 whole entry): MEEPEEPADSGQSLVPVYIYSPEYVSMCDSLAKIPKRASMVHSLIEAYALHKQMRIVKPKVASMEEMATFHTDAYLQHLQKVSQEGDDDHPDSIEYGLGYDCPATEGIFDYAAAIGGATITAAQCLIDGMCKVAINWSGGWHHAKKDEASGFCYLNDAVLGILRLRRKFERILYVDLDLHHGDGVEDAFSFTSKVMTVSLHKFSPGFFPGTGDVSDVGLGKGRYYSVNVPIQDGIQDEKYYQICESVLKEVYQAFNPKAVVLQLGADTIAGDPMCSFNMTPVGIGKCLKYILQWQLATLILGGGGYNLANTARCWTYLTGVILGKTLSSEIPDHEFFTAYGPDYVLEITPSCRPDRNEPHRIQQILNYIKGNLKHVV
In words: Inhibition of HDAC8 (unknown origin).

The target of data set [5] is Vascular endothelial growth factor receptor 2 (Homo sapiens, UniProt P35968). In words: Inhibition of VEGFR2 (unknown origin).
Data set [6] in a line: Cytotoxicity against human EA.hy 926 assessed as inhibition of cell growth. As to conditions: EA.hy 926 cells. It counts as toxicity, cell-based.
Another data set relates to HUVEC. As to the kind of experiment: Antiangiogenesis activity in HUVEC cells assessed as damage in vascular tube structure at 5 to 10 uM by tube formation assay. The class given is functional, cell-based. As to conditions: Homo sapiens, dose 5-10 µM.
The test system of data set [7] is MDA-MB-231. As to the kind of experiment: Inhibition of cell migration in human MDA-MB-231 cells at 3 to 10 uM measured upto 48 hrs by wound healing assay. The class given is functional, cell-based. Conditions: dose 3-10 µM.
Another data set relates to MDA-MB-436. In words: Induction of intracellular ROS generation in human MDA-MB-436 cells assessed as increase in ROS level by DCFH-DA staining based microscopic analysis. The class given is functional, cell-based. Conditions: dose 1.25-5 µM, DDE = dose-dependent effect.
In data set [8] the test system is ES-2. In words: Upregulation of Ac-HH3 expression in human ES2 cells at 10 uM by Western blot analysis. It counts as functional, cell-based. In general terms: A western blot detects proteins with antibodies after separation by electrophoresis.
For data set [9], the system named is ES-2. In words: Upregulation of Ac-HH4 expression in human ES2 cells at 10 uM by Western blot analysis. The class given is functional, cell-based.
The test system of data set [10] is ES-2. In words: Upregulation of Ac-tubulin expression in human ES2 cells at 0.3 uM by Western blot analysis. The class given is functional, cell-based.

Chain of Poly [ADP-ribose] polymerase 1 (P09874 whole entry): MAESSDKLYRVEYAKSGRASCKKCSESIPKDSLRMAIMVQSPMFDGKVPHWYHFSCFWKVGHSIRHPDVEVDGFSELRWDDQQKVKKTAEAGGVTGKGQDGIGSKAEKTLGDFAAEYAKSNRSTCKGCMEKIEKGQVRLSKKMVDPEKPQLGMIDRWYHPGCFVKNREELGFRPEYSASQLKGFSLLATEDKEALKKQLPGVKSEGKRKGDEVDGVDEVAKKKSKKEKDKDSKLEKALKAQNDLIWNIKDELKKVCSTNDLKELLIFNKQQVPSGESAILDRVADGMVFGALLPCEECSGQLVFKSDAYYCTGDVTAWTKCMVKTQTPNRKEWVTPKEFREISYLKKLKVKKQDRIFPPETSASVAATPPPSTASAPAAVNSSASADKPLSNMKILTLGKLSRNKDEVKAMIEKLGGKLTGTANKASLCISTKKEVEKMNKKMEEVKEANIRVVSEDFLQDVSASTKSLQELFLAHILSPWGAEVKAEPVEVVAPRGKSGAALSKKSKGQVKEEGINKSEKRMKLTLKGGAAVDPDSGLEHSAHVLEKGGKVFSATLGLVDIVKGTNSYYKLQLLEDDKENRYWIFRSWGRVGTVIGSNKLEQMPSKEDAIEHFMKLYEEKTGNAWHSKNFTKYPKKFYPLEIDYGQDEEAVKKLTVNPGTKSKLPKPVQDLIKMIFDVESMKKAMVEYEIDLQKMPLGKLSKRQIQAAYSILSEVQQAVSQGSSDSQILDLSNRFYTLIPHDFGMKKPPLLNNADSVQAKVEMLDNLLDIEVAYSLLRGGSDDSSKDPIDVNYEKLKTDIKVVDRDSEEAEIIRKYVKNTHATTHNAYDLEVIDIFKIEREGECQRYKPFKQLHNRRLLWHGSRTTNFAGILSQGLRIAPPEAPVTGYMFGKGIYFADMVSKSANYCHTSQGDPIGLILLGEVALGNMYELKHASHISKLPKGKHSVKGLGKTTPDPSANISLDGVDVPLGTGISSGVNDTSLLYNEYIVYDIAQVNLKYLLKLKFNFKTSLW
Chain of Vascular endothelial growth factor receptor 2 (P35968 whole entry): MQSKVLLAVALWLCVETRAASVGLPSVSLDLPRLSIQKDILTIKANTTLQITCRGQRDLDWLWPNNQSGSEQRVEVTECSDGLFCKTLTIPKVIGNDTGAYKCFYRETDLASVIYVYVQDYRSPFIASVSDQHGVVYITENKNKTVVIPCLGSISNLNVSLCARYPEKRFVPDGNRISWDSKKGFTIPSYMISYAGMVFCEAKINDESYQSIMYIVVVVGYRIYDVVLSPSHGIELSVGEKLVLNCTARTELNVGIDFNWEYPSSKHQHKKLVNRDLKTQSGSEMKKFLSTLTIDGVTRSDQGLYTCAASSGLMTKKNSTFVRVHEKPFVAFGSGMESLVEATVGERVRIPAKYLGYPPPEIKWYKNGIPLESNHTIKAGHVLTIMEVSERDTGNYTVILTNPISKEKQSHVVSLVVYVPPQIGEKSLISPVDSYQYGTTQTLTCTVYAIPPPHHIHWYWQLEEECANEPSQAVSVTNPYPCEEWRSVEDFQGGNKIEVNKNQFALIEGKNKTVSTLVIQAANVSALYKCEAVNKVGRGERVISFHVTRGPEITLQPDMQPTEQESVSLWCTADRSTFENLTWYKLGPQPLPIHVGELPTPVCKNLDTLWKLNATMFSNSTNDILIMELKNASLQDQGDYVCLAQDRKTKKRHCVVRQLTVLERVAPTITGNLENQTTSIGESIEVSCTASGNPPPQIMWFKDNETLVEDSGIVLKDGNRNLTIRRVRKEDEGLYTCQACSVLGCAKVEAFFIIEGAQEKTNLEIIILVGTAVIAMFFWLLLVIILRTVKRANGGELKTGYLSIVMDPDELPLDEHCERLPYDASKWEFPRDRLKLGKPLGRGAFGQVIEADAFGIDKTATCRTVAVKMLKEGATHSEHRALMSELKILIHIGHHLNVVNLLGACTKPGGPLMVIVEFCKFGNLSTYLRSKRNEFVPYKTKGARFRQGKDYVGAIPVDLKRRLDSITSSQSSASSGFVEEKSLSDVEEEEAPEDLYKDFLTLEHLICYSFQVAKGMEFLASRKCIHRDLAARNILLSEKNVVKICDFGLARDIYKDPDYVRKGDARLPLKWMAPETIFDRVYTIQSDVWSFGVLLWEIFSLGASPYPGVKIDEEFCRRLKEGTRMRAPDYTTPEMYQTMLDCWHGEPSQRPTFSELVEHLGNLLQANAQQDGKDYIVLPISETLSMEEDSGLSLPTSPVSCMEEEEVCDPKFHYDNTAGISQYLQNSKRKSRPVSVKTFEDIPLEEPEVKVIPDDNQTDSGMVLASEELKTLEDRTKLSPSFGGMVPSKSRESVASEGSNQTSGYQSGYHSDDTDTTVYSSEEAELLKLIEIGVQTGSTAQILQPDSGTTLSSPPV
Chain of Histone deacetylase 2 (Q92769 whole entry): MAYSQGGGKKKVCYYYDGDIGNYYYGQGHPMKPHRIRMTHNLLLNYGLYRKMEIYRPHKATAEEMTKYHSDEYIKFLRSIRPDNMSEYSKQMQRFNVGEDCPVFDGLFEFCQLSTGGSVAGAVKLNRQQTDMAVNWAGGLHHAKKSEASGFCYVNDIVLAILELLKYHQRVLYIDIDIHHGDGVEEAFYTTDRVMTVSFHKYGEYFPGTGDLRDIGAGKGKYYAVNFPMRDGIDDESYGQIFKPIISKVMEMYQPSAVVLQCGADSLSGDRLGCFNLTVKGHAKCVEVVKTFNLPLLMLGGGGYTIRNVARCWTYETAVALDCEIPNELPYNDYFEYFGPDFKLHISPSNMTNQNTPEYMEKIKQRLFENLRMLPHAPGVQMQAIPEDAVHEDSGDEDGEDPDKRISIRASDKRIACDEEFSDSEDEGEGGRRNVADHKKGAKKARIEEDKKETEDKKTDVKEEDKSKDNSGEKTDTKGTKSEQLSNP
Chain of Histone deacetylase 4 (P56524 whole entry): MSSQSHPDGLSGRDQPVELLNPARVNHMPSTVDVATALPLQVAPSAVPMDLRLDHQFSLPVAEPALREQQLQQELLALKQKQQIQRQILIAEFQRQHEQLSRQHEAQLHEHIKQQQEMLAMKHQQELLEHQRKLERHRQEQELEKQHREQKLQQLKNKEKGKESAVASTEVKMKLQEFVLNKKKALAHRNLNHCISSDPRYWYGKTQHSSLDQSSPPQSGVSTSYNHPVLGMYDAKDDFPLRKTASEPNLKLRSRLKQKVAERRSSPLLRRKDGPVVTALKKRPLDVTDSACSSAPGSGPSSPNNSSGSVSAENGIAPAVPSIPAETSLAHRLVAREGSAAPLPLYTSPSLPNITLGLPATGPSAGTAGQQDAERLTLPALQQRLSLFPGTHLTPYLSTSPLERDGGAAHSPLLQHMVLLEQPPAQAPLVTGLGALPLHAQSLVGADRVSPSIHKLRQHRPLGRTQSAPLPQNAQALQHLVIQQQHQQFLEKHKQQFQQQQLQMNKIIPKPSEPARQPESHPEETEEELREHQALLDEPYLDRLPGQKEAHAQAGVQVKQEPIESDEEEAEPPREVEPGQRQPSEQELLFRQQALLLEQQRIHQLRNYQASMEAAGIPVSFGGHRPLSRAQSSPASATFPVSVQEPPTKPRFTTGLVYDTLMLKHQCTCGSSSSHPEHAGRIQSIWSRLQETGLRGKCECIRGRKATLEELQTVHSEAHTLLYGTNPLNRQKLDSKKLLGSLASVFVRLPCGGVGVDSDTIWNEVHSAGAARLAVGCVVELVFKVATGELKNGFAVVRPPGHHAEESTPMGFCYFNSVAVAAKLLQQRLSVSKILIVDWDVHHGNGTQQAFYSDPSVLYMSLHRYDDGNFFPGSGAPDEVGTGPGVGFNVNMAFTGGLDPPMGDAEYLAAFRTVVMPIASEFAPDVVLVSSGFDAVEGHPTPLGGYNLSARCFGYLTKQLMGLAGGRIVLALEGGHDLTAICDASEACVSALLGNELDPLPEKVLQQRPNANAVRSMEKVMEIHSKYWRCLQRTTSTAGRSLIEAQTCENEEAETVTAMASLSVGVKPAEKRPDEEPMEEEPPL
Chain of Histone deacetylase 3 (O15379 whole entry): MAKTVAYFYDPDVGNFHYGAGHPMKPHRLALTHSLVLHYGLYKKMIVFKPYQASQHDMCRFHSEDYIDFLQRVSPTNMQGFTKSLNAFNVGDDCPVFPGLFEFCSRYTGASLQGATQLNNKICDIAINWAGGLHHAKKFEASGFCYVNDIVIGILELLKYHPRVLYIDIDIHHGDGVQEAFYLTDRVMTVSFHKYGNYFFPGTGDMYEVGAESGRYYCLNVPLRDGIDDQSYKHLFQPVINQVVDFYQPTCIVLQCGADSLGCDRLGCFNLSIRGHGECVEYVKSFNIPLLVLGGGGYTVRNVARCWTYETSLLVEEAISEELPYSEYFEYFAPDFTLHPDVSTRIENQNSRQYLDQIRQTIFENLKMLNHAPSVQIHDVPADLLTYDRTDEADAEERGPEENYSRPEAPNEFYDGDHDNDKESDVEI

Consider `NC(=O)c1cccc2cn(-c3ccc(OCCCCC(=O)NO)cc3)nc12`, for which the IC50 (as a rule, the point on the concentration scale where inhibition reaches its midpoint) was 102 nM in data set [1], > 30 µM at Histone deacetylase, 2410 nM with MDA-MB-231 [2] and 3640 nM with ES-2 [3].

Take `NC(=O)c1cccc2cn(-c3ccc(OCCCC(=O)NO)cc3)nc12`: the IC50 is 102 nM in data set [1], > 30 µM at Histone deacetylase, 9930 nM in the data set with MDA-MB-231 [2] and 12700 nM in the data set with ES-2 [3].

As to `NC(=O)c1ccc(COc2ccc(-n3cc4cccc(C(N)=O)c4n3)cc2)cc1`, the IC50 in data set [1] is 68.9 nM; against Histone deacetylase it was 10.8 µM; in the data set on MDA-MB-231 [2], 350 nM; with ES-2 [3], 1160 nM; in the data set on DU-145, 3.38 µM; in the data set with A549 it was 5.67 µM. Moreover, the IC50 in the data set with HCC1937 was 2850 nM; in the data set with CAPAN-1, 4.53 µM; against Histone deacetylase 2 it was 42.1 µM; against Histone deacetylase 3 it was 7.22 µM; at Histone deacetylase 4, > 100 µM; in data set [4], 540 nM. Also, the figures for the IC50 (against Histone deacetylase 8; in [5]; in [6]) were > 100 µM, 5.92 nM and 5.41 µM, respectively. Besides, the result in the data set on HUVEC, in the data set on ES-2 [8], in the data set with ES-2 [9] and in the data set with ES-2 [10] was Active. Further, in the data set with MDA-MB-231 [7], the inhibition result was “Active”. The Activity entry with MDA-MB-436 was “Dde”.

As to `NC(=O)c1ccc(COc2ccc(-c3nc4c(C(N)=O)cccc4[nH]3)cc2)cc1`, the IC50 in data set [1] was 31 nM; against Histone deacetylase, 7.7 µM; in the data set with MDA-MB-231 [2], 1080 nM; with ES-2 [3], 1160 nM; with DU-145, 8.56 µM; with A549 it was 16.4 µM. Also, the IC50 in the data set on HCC1937 came out at 4050 nM; in the data set with CAPAN-1, 26.4 µM.

Consider `NC(=O)c1cccc2cn(-c3ccc(OCCCCCCC(=O)NO)cc3)nc12`, for which the IC50 in data set [1] was 128 nM; against Histone deacetylase it was > 30 µM; with MDA-MB-231 [2], > 30000 nM; in the data set with ES-2 [3], 1570 nM.

For the compound `O=C(c1cc(Cc2n[nH]c(=O)c3ccccc23)ccc1F)N1CCN(C(=O)C2CC2)CC1` [OLAPARIB], the IC50 in the data set with MDA-MB-231 [2] was 690 nM; in the data set on ES-2 [3] it was 2050 nM; with DU-145, 11.4 µM; in the data set on A549, 5.89 µM; in the data set on HCC1937 it was > 30000 nM; in the data set with CAPAN-1, 1.67 µM.

As to `NC(=O)c1cccc2cn(-c3ccc(OCCCCCC(=O)NO)cc3)nc12`, the IC50 was 285 nM in data set [1], > 30 µM at Histone deacetylase, 4280 nM in the data set with MDA-MB-231 [2] and 1680 nM in the data set on ES-2 [3].

On to `NC(=O)c1cccc2[nH]c(-c3ccc(OCCCCC(=O)NO)cc3)nc12`, for which the IC50 was 12.1 nM in data set [1], > 30 µM at Histone deacetylase, > 30000 nM in the data set with MDA-MB-231 [2] and > 30000 nM in the data set on ES-2 [3].

`NC(=O)c1cccc2cn(-c3ccc(OCCCCCCCC(=O)NO)cc3)nc12`: the IC50 is 245 nM in [1], 13.7 µM at Histone deacetylase, > 30000 nM in the data set on MDA-MB-231 [2] and 6150 nM with ES-2 [3].

With `NC(=O)c1cccc2[nH]c(-c3ccc(OCCCCCCC(=O)NO)cc3)nc12`, the IC50 in data set [1] is 38 nM; on Histone deacetylase it was 7 µM; in the data set on MDA-MB-231 [2], > 30000 nM; with ES-2 [3], > 30000 nM.

For the compound `NC(=O)c1cccc2[nH]c(-c3ccc(OCCCC(=O)NO)cc3)nc12`, the IC50 was 14.2 nM in [1], > 30 µM on Histone deacetylase, > 30000 nM in the data set with MDA-MB-231 [2] and > 30000 nM with ES-2 [3].

With `NC(=O)c1cccc2[nH]c(-c3ccc(OCCCCCC(=O)NO)cc3)nc12`, the IC50 is 20.2 nM in data set [1], 5.5 µM at Histone deacetylase, > 30000 nM in the data set on MDA-MB-231 [2] and > 30000 nM in the data set on ES-2 [3].

As for `NC(=O)/C=C/c1ccc(COc2ccc(-n3cc4cccc(C(N)=O)c4n3)cc2)cc1`, the IC50 in data set [1] was found to be 227 nM; on Histone deacetylase it was 10.6 µM; in the data set on MDA-MB-231 [2] it was 340 nM; in the data set on ES-2 [3], 420 nM; in the data set with DU-145 it was 3.59 µM; in the data set on A549, 6.98 µM. Moreover, the IC50 in the data set with HCC1937 is 1920 nM; with CAPAN-1, 6.55 µM; against Histone deacetylase 2, 31 µM; against Histone deacetylase 3 it was 2.19 µM; at Histone deacetylase 4 it was > 100 µM; in data set [4], 510 nM. Further, the IC50 was > 100 µM at Histone deacetylase 8, 3.4 nM in data set [5] and 26 µM in data set [6].

Regarding `NC(=O)/C=C/c1ccc(COc2ccc(-c3nc4c(C(N)=O)cccc4[nH]3)cc2)cc1`, the IC50 in data set [1] came out at 27.4 nM; at Histone deacetylase, 7.9 µM; in the data set on MDA-MB-231 [2] it was 690 nM; in the data set on ES-2 [3], 1370 nM; with DU-145, 4.7 µM; with A549 it was 7.72 µM. Moreover, the IC50 in the data set on HCC1937 amounted to 2880 nM; with CAPAN-1 it was 5.63 µM.

Turning to `NC(=O)c1cccc2[nH]c(-c3ccc(OCCCCCCCC(=O)NO)cc3)nc12`, the IC50 in data set [1] was 47.5 nM; on Histone deacetylase it was > 30 µM; in the data set with MDA-MB-231 [2] it was > 30000 nM; in the data set on ES-2 [3], > 30000 nM.
